# Results from ChEMBL document CHEMBL5385844, “Discovery of novel imidazole chemotypes as isoform-selective JNK3 inhibitors for the treatment of Alzheimer's disease” (Eur J Med Chem, 2023).
# Activity calls are given as the source filed them. The rule behind the calls is not given here.
# Tests used:
# [1] = target: Mitogen-activated protein kinase 10 (Rattus norvegicus) (UniProt P49187); assay: Inhibition of JNK3 in anisomycin-induced c-Jun phosphorylation in primary rat cortex neuron assessed as decrease in c-Jun phosphorylation at 20 uM pretreated for 90 mins followed by treated with anisomycin further incubated for 40 mins by Western blot analysis; assay type: cell-based; conditions: Primary cortical neuron
# [2] = Apparent permeability across apical to basolateral side in human Caco-2 cells at 10 uM incubated for 1 hr by LC-MS/MS analysis; assay type: ADME, cell-based
# Mus musculus [3] = assay: Anti-alzheimer activity against homozygous 3 x Tg mouse model assessed as escape latency time at 30 mg/kg, po administered daily for 2 months and measured after 60 days of treatment by Passive avoidance test (reference value: 43.44 +/- 7.35 sec); assay type: functional; conditions: 1460 h
# Mus musculus [4] = assay: Anti-alzheimer activity against homozygous 3 x Tg mouse model assessed as spontaneous alteration at 30 mg/kg, po administered daily for 2 months and measured after 57 days of treatment by Y-maze test (reference value: 46.81 +/- 2.76%); assay type: functional; conditions: 1460 h
# [5] = Toxicity in APP/PS1 mouse assessed as weight change at 30 mg/kg, po treated 3 times/week for 1 month; assay type: organism-based; conditions: in vivo, 730 h, time 1 months
# [6] = Toxicity in APP/PS1 mouse assessed as abnormal symptoms at 30 mg/kg, po treated 3 times/week for 1 month; assay type: organism-based; conditions: in vivo, 730 h, time 1 months
# Mus musculus [7] = assay: Anti-alzheimer activity against APP/PS1 dE9 double transgenic mouse model assessed as escape latency time at 30 mg/kg, po administered 3 times/week for 1 month and measured after 27 days of treatment by Passive avoidance test (reference value: 18.5 +/- 2.3 sec); assay type: functional; conditions: time 27 day
# Mus musculus [8] = assay: Anti-alzheimer activity against APP/PS1 dE9 double transgenic mouse model assessed as escape latency time at 10 mg/kg, po administered 3 times/week for 1 month and measured after 27 days of treatment by Passive avoidance test (reference value: 18.5 +/- 2.3 sec); assay type: functional; conditions: time 27 day
# [9] = Brain to Plasma ratio in Sprague-Dawley rat at 30 mg/kg, po measured at Tmax; assay type: ADME, organism-based; conditions: read-out: BPR
# [10] = Plasma concentration in Sprague-Dawley rat at 30 mg/kg, po measured at Tmax; assay type: ADME, organism-based
# [11] = Toxicity in APP/PS1 mouse assessed as dead animal at 10 mg/kg, po treated 3 times/week for 1 month; assay type: organism-based; conditions: in vivo, 730 h, time 1 months
# [12] = Oral bioavailability in Sprague-Dawley rat at 3 mg/kg measured upto 24 hrs by UPLC analysis; assay type: ADME, organism-based; conditions: in vivo
# Cortical neurone [13] = assay: Neuroprotective activity against Amyloid beta (1 to 42)-induced toxicity in rat cortical neuron assessed as cell viability at 20 uM measured after 24 hrs by MTT assay; assay type: functional; conditions: read-out: Activity
# [14] = target: T1, Mitogen-activated protein kinase 8 (Homo sapiens, UniProt P45983); assay: Inhibition of human JNK1 incubated for 40 mins in presence of ATP and [gamma33P-ATP] by scintillation counting method
# [15] = target: Glycogen synthase kinase-3 beta (Homo sapiens, UniProt P49841); assay: Inhibition of human GSK3beta assessed as incorporation of 33P-ATP
# [16] = target: T2, Dual specificity mitogen-activated protein kinase kinase 6 (Homo sapiens, UniProt P52564); assay: Inhibition of MKK6 (unknown origin) assessed as incorporation of 33P-ATP
# T2 sequence (P52564 whole entry): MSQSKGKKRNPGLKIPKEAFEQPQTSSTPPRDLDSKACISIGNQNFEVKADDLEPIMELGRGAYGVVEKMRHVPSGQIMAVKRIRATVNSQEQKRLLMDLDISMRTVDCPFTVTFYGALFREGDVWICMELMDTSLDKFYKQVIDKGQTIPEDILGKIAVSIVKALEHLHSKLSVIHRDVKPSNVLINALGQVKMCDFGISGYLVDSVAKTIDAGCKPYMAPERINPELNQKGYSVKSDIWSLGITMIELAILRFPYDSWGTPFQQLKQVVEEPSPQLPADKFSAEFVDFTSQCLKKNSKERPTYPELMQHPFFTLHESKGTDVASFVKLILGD
# [17] = target: Mitogen-activated protein kinase 14 (Homo sapiens, UniProt Q16539); assay: Inhibition of human SAPK2a assessed as incorporation of 33P-ATP
# [18] = target: T3, Dual specificity mitogen-activated protein kinase kinase 4 (Homo sapiens, UniProt P45985); assay: Inhibition of MKK4 (unknown origin) assessed as incorporation of 33P-ATP
# T3 sequence (P45985 whole entry): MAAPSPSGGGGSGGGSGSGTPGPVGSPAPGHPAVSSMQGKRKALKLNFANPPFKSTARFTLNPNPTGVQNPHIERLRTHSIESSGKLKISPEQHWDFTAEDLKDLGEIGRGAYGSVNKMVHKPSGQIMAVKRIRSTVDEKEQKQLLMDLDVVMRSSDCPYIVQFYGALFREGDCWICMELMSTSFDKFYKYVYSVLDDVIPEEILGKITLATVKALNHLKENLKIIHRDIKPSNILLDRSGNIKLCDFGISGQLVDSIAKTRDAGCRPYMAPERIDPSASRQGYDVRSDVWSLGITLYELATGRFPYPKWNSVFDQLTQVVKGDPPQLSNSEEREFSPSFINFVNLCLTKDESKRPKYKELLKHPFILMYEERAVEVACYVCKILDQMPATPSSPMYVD
# [19] = target: T1, Mitogen-activated protein kinase 8; assay: Inhibition of human JNK1alpha1 assessed as incorporation of 33P-ATP
# [20] = target: Mitogen-activated protein kinase 9 (Homo sapiens, UniProt P45984); assay: Inhibition of human JNK2alpha1 assessed as incorporation of 33P-ATP
# Cortical neurone [21] = assay: Neuroprotective activity against Amyloid beta (1 to 42)-induced toxicity in rat cortical neuron assessed as cell viability measured after 24 to 48 hrs by MTT assay; assay type: functional, cell-based; conditions: time 24-48 hrs
# T1 sequence (P45983 whole entry): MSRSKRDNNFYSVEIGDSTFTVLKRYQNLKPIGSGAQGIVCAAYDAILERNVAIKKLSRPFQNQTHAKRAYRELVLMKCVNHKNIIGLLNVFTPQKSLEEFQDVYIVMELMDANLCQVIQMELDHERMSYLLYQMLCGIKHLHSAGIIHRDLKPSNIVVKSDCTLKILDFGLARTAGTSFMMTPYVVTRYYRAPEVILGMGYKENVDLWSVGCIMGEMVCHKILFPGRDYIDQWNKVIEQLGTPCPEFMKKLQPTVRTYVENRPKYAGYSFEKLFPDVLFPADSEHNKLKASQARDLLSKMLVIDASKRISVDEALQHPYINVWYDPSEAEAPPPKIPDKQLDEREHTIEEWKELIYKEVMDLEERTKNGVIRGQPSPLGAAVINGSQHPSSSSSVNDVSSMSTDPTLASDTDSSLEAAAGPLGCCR
# Mitogen-activated protein kinase 14, sequence (Q16539 whole entry): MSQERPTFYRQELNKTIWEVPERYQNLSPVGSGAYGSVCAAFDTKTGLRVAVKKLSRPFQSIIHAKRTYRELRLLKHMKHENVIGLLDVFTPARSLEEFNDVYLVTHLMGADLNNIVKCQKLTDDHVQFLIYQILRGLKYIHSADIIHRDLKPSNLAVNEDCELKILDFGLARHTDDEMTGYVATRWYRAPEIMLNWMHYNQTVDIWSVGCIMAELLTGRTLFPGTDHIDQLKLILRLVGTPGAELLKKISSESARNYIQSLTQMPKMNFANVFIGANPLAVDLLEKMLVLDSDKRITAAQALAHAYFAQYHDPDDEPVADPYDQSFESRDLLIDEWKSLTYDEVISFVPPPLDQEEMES
# Glycogen synthase kinase-3 beta, sequence (P49841 whole entry): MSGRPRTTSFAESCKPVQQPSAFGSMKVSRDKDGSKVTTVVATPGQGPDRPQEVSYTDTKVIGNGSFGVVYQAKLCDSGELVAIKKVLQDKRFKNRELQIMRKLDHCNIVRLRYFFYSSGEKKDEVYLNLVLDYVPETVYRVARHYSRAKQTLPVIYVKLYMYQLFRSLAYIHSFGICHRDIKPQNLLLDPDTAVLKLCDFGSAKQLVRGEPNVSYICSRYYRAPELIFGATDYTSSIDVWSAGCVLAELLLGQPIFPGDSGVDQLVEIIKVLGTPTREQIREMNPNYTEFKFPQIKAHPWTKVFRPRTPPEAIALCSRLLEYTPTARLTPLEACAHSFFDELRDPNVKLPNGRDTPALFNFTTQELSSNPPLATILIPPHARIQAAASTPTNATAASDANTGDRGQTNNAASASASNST
# Mitogen-activated protein kinase 9, sequence (P45984 whole entry): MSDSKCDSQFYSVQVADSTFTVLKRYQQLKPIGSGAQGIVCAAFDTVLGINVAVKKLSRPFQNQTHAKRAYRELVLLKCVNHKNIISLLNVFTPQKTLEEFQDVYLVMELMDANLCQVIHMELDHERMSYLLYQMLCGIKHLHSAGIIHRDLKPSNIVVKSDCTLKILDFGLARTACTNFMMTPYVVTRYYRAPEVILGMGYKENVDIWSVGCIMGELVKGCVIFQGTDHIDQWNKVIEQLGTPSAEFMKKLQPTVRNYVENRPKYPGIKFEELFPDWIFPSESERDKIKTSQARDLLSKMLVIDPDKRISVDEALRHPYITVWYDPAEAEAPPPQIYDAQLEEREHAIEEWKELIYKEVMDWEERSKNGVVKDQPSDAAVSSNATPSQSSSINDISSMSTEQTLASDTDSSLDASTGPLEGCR
# Mitogen-activated protein kinase 10 (Rattus norvegicus), sequence (P49187 whole entry): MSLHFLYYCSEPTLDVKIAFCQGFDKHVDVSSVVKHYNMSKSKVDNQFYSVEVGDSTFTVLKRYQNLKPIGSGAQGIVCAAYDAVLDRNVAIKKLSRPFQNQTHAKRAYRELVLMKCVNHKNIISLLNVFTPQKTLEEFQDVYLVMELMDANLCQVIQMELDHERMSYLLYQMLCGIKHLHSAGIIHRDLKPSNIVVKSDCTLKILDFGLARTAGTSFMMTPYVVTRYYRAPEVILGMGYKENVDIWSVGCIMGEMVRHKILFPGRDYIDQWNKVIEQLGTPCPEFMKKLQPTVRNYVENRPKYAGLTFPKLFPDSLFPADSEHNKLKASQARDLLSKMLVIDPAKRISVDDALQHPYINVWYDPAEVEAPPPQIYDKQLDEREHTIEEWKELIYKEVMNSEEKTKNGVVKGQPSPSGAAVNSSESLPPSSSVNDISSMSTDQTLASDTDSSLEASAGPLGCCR
smiles,measurement,setting,value
N#CCc1cnc(-c2ccc3ccccc3c2)n1-c1ccnc(N[C@H]2CCCN(C(=O)C3CC3)C2)n1,Activity,[1],Active
same,"Papp A→B at 1 h, 10 µM",[2],13.7 ×10⁻⁶ cm/s
same,Time,Mus musculus [3],54.09 s
same,Activity,Mus musculus [4],50.97%
same,Activity,[5],Non-Toxic
same,Activity,[6],Non-Toxic
same,Time,Mus musculus [7],49.5 s
same,Time,Mus musculus [8],31.7 s
same,Kp,[9],0.02
same,Cmax,[10],1080 ng/mL
same,Activity,[11],Non-Toxic
same,bioavailability,[12],15.7%
same,viability at 20 µM,Cortical neurone [13],72.6%
same,IC50,[14],298 nM
same,IC50,[15],11.7 µM
same,IC50,[16],15.1 µM
same,IC50,[17],310 nM
same,IC50,[18],970 nM
same,IC50,[19],860 nM
same,IC50,[20],340 nM
same,Activity,Cortical neurone [21],Dose-Dependent Effect
